From US20130137865A1 (TAISHO PHARMACEUTICAL CO., LTD., priority 2010, published 2013)

Target: T1, rat mGlu2 receptor (Rattus norvegicus, UniProt P31421)
T1 construct: expressed in transfected cells; host or cells: CHO cells
Assay: [35S]GTPγS binding test (1), membranes of CHO cells stably expressing rat mGlu2
Format: biochemical
Details: inhibition of glutamic acid (20 μM)-stimulated specific [35S]GTPγS binding
Description: (Preparation of Crude Membrane Fraction of CHO Cells Stably Expressing the Rat Metabotropic Glutamate Receptor (mGlu2))
(§1) CHO cells stably expressing the rat mGlu2 receptor were cultured in a 10% dialyzed fetal bovine serum-containing Dulbecco's Modified Eagle's Medium [1% proline, 50 units/mL penicillin, 50 μg/mL streptomycin, and 2 mM L-glutamine (to be added when used)] at 37° C. in 5% CO2. Confluent cells were washed with PBS(−) twice, and were then harvested with a cell scraper. Then, the cells were centrifuged at 4° C. at 1000 rpm for 5 minutes to collect. The obtained precipitate was suspended in a 20 mM HEPES buffer (pH 7.4), and then homogenized with a Teflon® homogenizer. The resultant was centrifuged at 4° C. at 48,000×g for 20 minutes to obtain a precipitate again. The obtained precipitate was washed twice by centrifugation, and was then homogenized with the above-mentioned buffer, so as to obtain a crude membrane fraction. The obtained crude membrane fraction was preserved at −80° C.
(§2) The frozen membrane fraction as prepared above was thawed when used, and it was then diluted with a binding test buffer (final concentration: 20 mM HEPES, 100 mM NaCl, 10 mM MgCl2, 8.4 μM GDP, 10 μg/mL saponin, and 0.1% BSA). The compound of the Example was added to a membrane fraction (10 μg protein/assay), and the obtained mixture was then incubated at 30° C. for 20 minutes. Thereafter, glutamic acid (final concentration: 20 μM) and [^35S]GTPγS (final concentration: 0.15 nM) were added to the reaction mixture, and then incubated at 30° C. for 1 hour. After completion of the incubation, the reaction mixture was subjected to filtration over a Whatman GF/C filter that had previously been immersed in a 20 mM HEPES buffer (pH 7.4), and the filter was then washed three times with 300 μL of ice-cold 20 mM HEPES buffer (pH 7.4). A scintillation cocktail was added to the resulting filter, and membrane-bound radioactivity was then measured with a liquid scintillation counter.
(§3) The amount of [^35S]GTPγS bound in the case of carrying out the above described reaction in the absence of glutamic acid was defined as non-specific binding. The difference between such non-specific bound and the amount of [^35S]GTPγS bound in the presence of glutamic acid was defined as specific binding. Using non-linear analysis, a concentration-inhibition curve was produced. The concentration of the compound of each Example that caused 50% inhibition (IC50 value) of specific binding was determined from each concentration-inhibition curve.

T1 sequence (P31421 19-872): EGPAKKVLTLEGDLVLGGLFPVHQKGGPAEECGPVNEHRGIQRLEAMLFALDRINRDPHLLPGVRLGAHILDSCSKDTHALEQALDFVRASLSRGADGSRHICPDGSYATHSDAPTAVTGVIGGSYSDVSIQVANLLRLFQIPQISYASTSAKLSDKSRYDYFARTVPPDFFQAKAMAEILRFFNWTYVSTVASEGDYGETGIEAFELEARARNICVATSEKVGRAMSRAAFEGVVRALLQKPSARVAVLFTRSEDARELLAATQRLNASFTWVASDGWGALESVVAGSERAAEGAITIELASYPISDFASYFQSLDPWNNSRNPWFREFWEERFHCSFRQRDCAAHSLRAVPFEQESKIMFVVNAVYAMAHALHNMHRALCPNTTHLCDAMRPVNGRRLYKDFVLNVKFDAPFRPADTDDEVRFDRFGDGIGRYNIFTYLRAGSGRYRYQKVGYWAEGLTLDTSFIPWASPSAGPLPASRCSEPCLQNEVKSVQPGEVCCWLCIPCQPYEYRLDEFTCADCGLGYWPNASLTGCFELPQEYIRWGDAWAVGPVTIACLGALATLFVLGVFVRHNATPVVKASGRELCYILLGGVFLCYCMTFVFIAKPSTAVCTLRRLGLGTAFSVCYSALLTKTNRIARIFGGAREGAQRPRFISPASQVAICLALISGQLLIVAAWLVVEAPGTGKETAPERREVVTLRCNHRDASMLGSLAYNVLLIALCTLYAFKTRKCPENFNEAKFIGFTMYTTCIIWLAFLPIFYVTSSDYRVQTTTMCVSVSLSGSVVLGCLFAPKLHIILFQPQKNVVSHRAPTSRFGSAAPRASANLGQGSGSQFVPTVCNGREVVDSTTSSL

Going from Cn1ncc(-c2noc(-c3ccc(S(N)(=O)=O)cc3)n2)c1CCc1ccc(C(F)(F)F)cc1 [Example 3, 4-[3-(1-Methyl-5-{2-[4-(trifluoromethyl)phenyl]ethyl}-1H-pyrazol-4-yl)-1,2,4-oxadiazol-5-yl]benzenesulfonamide] to Cn1ncc(-n2cc(-c3ccc(S(N)(=O)=O)cc3)cn2)c1CCc1ccc(C(F)(F)F)cc1 [Example 6, 4-(1′-Methyl-5′-{2-[4-(trifluoromethyl)phenyl]ethyl}-1′H-1,4′-bipyrazol-4-yl)benzenesulfonamide], the IC50 rises from 3.65 nM to 58.5 nM (16-fold).

In the case of Cn1ncc(-c2nc(-c3cccc(S(N)(=O)=O)c3)no2)c1C#Cc1ccc(C(F)(F)F)cn1 [Example 7, 3-[5-(1-Methyl-5-{[5-(trifluoromethyl)pyridin-2-yl]ethynyl}-1H-pyrazol-4-yl)-1,2,4-oxadiazol-3-yl]benzenesulfonamide], the IC50 is reported as 17.6 nM.

Target: T2, human mGlu2 receptor (Homo sapiens, UniProt Q14416)
T2 construct: expressed in transfected cells; host or cells: CHO cells
T2 sequence (Q14416 19-872): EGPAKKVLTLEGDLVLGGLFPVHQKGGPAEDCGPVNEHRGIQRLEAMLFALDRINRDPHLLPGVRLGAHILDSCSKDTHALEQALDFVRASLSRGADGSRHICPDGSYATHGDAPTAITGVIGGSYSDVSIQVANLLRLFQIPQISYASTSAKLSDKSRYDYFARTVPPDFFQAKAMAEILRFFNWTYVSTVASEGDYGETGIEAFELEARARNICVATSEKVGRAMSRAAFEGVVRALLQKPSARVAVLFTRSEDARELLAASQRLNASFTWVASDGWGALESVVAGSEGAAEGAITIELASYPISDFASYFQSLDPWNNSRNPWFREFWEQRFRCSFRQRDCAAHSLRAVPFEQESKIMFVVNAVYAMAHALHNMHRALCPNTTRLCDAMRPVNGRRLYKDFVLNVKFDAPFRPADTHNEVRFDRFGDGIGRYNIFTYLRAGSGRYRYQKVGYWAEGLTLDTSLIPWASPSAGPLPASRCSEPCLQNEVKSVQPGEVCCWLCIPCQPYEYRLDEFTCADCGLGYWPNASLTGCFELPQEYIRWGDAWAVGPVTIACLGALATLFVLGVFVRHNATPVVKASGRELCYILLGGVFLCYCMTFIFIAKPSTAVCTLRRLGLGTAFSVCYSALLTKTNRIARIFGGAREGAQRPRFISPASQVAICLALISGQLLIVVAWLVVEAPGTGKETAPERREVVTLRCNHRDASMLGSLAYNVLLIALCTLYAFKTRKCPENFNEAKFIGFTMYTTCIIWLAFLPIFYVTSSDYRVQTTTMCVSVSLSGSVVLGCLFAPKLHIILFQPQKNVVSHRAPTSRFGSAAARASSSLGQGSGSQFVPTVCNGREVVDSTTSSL
Assay: [35S]GTPγS binding test (2), membranes of CHO cells stably expressing human mGlu2
Format: biochemical
Details: inhibition of glutamic acid (20 μM)-stimulated specific [35S]GTPγS binding
Description: (Preparation of Crude Membrane Fraction of CHO Cells Stably Expressing the Human Metabotropic Glutamate Receptor (mGlu2))
as §1, with “human” for “rat”, “streptomycin, 400 μg/mL hygromycin B,” for “streptomycin,”
as §2, §3

Going from Cn1ncc(-c2nc(-c3cccc(S(N)(=O)=O)c3)no2)c1COc1ccc(F)cn1 [Example 72, 3-[5-(5-{[(5-Fluoropyridin-2-yl)oxy]methyl}-1-methyl-1H-pyrazol-4-yl)-1,2,4-oxadiazol-3-yl]benzenesulfonamide] to Cn1ncc(-c2nc(-c3cccc(S(N)(=O)=O)c3)no2)c1COc1ccc(C(F)(F)F)cn1 [Example 122, 3-{5-[1-Methyl-5-({[5-(trifluoromethyl)pyridin-2-yl]oxy}methyl)-1H-pyrazol-4-yl]-1,2,4-oxadiazol-3-yl}benzenesulfonamide], the IC50 falls from 10.3 nM to 1.33 nM (7.7-fold).

First: Cn1ncc(-c2nc(-c3cccc(S(N)(=O)=O)c3)no2)c1COc1ccccn1 [Example 75, 3-(5-{1-Methyl-5-[(pyridin-2-yloxy)methyl]-1H-pyrazol-4-yl}-1,2,4-oxadiazole-3-yl)benzenesulfonamide]
Second: CNS(=O)(=O)c1cccc(-c2noc(-c3cnn(C)c3COc3ccccn3)n2)c1 [Example 146, N-Methyl-3-(5-{1-methyl-5-[(pyridin-2-yloxy)methyl]-1H-pyrazol-4-yl}-1,2,4-oxadiazol-3-yl)benzenesulfonamide]
The IC50 of the first is 2.8-fold higher: 36.7 nM for the first, 13.2 nM for the second.

First: CN(C)CCNS(=O)(=O)c1cccc(-c2noc(-c3cnn(C)c3COc3ccc(F)cn3)n2)c1 [Example 85, N-[2-(Dimethylamino)ethyl]-3-[5-(5-{[(5-fluoropyridin-2-yl)oxy]methyl}-1-methyl-1H-pyrazol-4-yl)-1,2,4-oxadiazol-3-yl]benzenesulfonamide]
Second: CNCCNS(=O)(=O)c1cccc(-c2noc(-c3cnn(C)c3COc3ccc(F)cn3)n2)c1 [Example 232, 3-[5-(5-{[(5-Fluoropyridin-2-yl)oxy]methyl}-1-methyl-1H-pyrazol-4-yl)-1,2,4-oxadiazol-3-yl]-N-[2-(methylamino)ethyl]benzenesulfonamide]
The IC50 of the first is 2.4-fold lower: 13.6 nM for the first, 33.2 nM for the second.

Cn1ncc(-c2nc(-c3ccc(N)nc3)no2)c1COc1ccc(C(F)(F)F)cc1 [Example 92, 5-[5-(1-Methyl-5-{[4-(trifluoromethyl)phenoxy]methyl}-1H-pyrazol-4-yl)-1,2,4-oxadiazol-3-yl]pyridine-2-amine] and CC(=O)Nc1cc(-c2noc(-c3cnn(C)c3COc3ccc(C(F)(F)F)cc3)n2)ccn1 [Example 208, N-{4-[5-(1-methyl-5-{[4-(trifluoromethyl)phenoxy]methyl}-1H-pyrazol-4-yl)-1,2,4-oxadiazol-3-yl]pyridin-2-yl}acetamide] are within 1.5-fold of each other in IC50: 28.6 nM for the first, 29.1 nM for the second.

First: Cn1ncc(-c2nnc(-c3cccc(S(N)(=O)=O)c3)o2)c1COc1ccc(C(F)(F)F)cn1 [Example 187, 3-{5-[1-Methyl-5-({[5-(trifluoromethyl)pyridin-2-yl]oxy}methyl)-1H-pyrazol-4-yl]-1,3,4-oxadiazol-2-yl}benzenesulfonamide]
Second: Cn1ncc(-c2nc(-c3cccc(S(C)(=O)=O)c3)no2)c1COc1ccc(C(F)(F)F)cn1 [Example 216, 2-[(1-Methyl-4-{3-[3-(methylsulfonyl)phenyl]-1,2,4-oxadiazol-5-yl}-1H-pyrazol-5-yl)methoxy]-5-(trifluoromethyl)pyridine]
The IC50 of the first is 5-fold higher: 21.5 nM for the first, 4.32 nM for the second. The second is the more potent here.

First: Cn1ncc(-c2nnc(-c3ccc(S(N)(=O)=O)cc3)o2)c1COc1ccc(C(F)(F)F)cc1 [Example 190, 4-[5-(1-Methyl-5-{[4-(trifluoromethyl)phenoxy]methyl}-1H-pyrazol-4-yl)-1,3,4-oxadiazol-2-yl]benzenesulfonamide]
Second: Cn1ncc(-c2coc(-c3cccc(S(N)(=O)=O)c3)n2)c1COc1ccc(C(F)(F)F)cc1 [Example 203, 3-[4-(1-Methyl-5-{[4-(trifluoromethyl)phenoxy]methyl}-1H-pyrazol-4-yl)-1,3-oxazol-2-yl]benzenesulfonamide]
The IC50 of the first is 17-fold higher: 67.2 nM for the first, 3.85 nM for the second. The second is the more potent here.

Going from Cn1ncc(-c2cc(-c3cccc(S(N)(=O)=O)c3)on2)c1COc1ccc(F)cn1 [Example 204, 3-[3-(5-{[(5-Fluoropyridin-2-yl)oxy]methyl}-1-methyl-1H-pyrazol-4-yl)-1,2-oxazol-5-yl]benzenesulfonamide] to Cn1ncc(-c2nc(-c3cccc(S(N)(=O)=O)c3)no2)c1COc1ncc(F)cc1Br [Example 214, 3-[5-(5-{[(3-Bromo-5-fluoropyridin-2-yl)oxy]methyl}-1-methyl-1H-pyrazol-4-yl)-1,2,4-oxadiazol-3-yl]benzenesulfonamide], the IC50 falls from 50.8 nM to 26.4 nM (1.9-fold). The second is the more potent here.

First: Cn1ncc(-c2nc(-c3ccc(S(C)(=O)=O)cc3)no2)c1COc1ccc(C(F)(F)F)cn1 [Example 215, 2-[(1-Methyl-4-{3-[4-(methylsulfonyl)phenyl]-1,2,4-oxadiazol-5-yl}-1H-pyrazol-5-yl)methoxy]-5-(trifluoromethyl)pyridine]
Second: Cn1ncc(-c2nc(-c3cncc(S(C)(=O)=O)c3)no2)c1COc1ccc(C(F)(F)F)cn1 [Example 223, 2-[(1-Methyl-4-{3-[5-(methylsulfonyl)pyridin-3-yl]-1,2,4-oxadiazol-5-yl}-1H-pyrazol-5-yl)methoxy]-5-(trifluoromethyl)pyridine]
The IC50 of the first is 2.9-fold higher: 49.1 nM for the first, 17.1 nM for the second. The second is the more potent here.

Going from CC(=O)Nc1cc(-c2noc(-c3cnn(C)c3COc3ccc(C(F)(F)F)cn3)n2)ccn1 [Example 217, N-(4-{5-[1-Methyl-5-({[5-(trifluoromethyl)pyridin-2-yl]oxy}methyl)-1H-pyrazol-4-yl]-1,2,4-oxadiazol-3-yl}pyridin-2-yl)acetamide] to Cn1ncc(-c2nc(-c3cccc(N)c3)no2)c1COc1ccc(C(F)(F)F)cn1 [Example 220, 3-{5-[1-Methyl-5-({[5-(trifluoromethyl)pyridin-2-yl]oxy}methyl)-1H-pyrazol-4-yl]-1,2,4-oxadiazol-3-yl}aniline], the IC50 rises from 14.9 nM to 32.2 nM (2.2-fold).

Compared with Cn1ncc(-c2nc(-c3cnc(N)nc3)no2)c1COc1ccc(C(F)(F)F)cn1 [Example 218, 5-{5-[1-Methyl-5-({[5-(trifluoromethyl)pyridin-2-yl]oxy}methyl)-1H-pyrazol-4-yl]-1,2,4-oxadiazol-3-yl}pyrimidine-2-amine], Cn1ncc(-c2nc(-c3cncc(S(N)(=O)=O)c3)no2)c1COc1ccc(C(F)(F)F)cn1 [Example 224, 5-{5-[1-Methyl-5-({[5-(trifluoromethyl)pyridin-2-yl]oxy}methyl)-1H-pyrazol-4-yl]-1,2,4-oxadiazol-3-yl}pyridine-3-sulfonamide] is 19-fold lower in IC50: 68 nM for the first, 3.64 nM for the second. The second is the more potent here.

Cn1ncc(-c2nc(-c3cc[nH]c(=O)c3)no2)c1COc1ccc(C(F)(F)F)cn1 [Example 228, 4-{5-[1-Methyl-5-({[5-(trifluoromethyl)pyridin-2-yl]oxy}methyl)-1H-pyrazol-4-yl]-1,2,4-oxadiazol-3-yl}pyridine-2(1H)-one] and Cn1nc(-c2cccc(S(N)(=O)=O)c2)nc1-c1cnn(C)c1COc1ccc(C(F)(F)F)cc1 [Example 233, 3-[1-Methyl-5-(1-methyl-5-{[4-(trifluoromethyl)phenoxy]methyl}-1H-pyrazol-4-yl)-1H-1,2,4-triazol-3-yl]benzenesulfonamide] are within 1.5-fold of each other in IC50: 56.9 nM for the first, 80.6 nM for the second.
